Assays:
RSV A2 strain = assay: In vitro CPE (CytoPathic Effect) inhibition effect evaluation test, RSV type A; format: cell-based; conditions: human respiratory syncytial virus; inhibitory effect against RSV type A (RSV A2 strain), HEp-2 cells, CPE inhibition; read-out: EC50
In short: (§1)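 EC50 is the concentration giving 50% inhibition of virus-induced cytopathic effect, fitted by nonlinear regression from CellTiter-Glo 2.0 viability. Compounds in 3-fold series were co-incubated at 37 °C with HEp-2 cells and RSV: A2 strain for 4 days, B (Wash/18537) for 5 days; uninfected wells served as control.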

[1] = system: RSV B (Wash/18537 strain); assay: In vitro CPE (CytoPathic Effect) inhibition effect evaluation test, RSV type B; format: cell-based; conditions: human respiratory syncytial virus, inhibitory effect against RSV type B, CPE inhibition; read-out: EC50
In short: as §1

Row | SMILES | EC50 (RSV A2 strain) [nM] | EC50 [1] [nM]
1 | O=C(NC1(C(=O)O)C2CC3CC(C2)CC1C3)c1cnc(-c2cn(C3CCC(F)(F)CC3)c3cc(OC4CCN(CC5(F)COC5)CC4)ccc23)nc1C(F)(F)F (centres unmarked) [Compound I-429] | < 10 | 10 to 100
2 | O=C(NC1(C(=O)O)C2CC3CC(C2)CC1C3)c1cnc(-c2cn(C3CCOCC3)c3cc(OC4CCN(c5ncc(F)cn5)CC4)ccc23)nc1C(F)(F)F (centres unmarked) [Compound I-431] | < 10 | < 10
3 | O=C(NC1(C(=O)O)C2CC3CC(C2)CC1C3)c1cnc(-c2cn(C3CCC4(CC3)COC4)c3cc(OC4CCN(c5ncc(F)cn5)CC4)ccc23)nc1C(F)(F)F (centres unmarked) [Compound I-437] | < 10 | < 10
4 | O=C(NC1(C(=O)O)C2CC3CC(C2)CC1C3)c1cnc(N2CC3(CCCCC3)c3cc(OC4CCC(N5CC(F)(F)C5)CC4)ccc32)nc1C(F)(F)F (centres unmarked) [Compound I-438] | < 10 | < 10
5 | CC(F)(F)c1nc(N2CC3(CCCCC3)c3cc(OC4CCN(CC(F)(F)F)CC4)ccc32)ncc1C(=O)NC1(C(=O)O)C2CC3CC(C2)CC1C3 (centres unmarked) [Compound I-440] | < 10 | 10 to 100
6 | CC(F)(F)c1nc(N2CC3(CCCCC3)c3cc(O[C@H]4CC[C@H](N5CC(F)(F)C5)CC4)ccc32)ncc1C(=O)NC1(C(=O)O)C2CC3CC(C2)CC1C3 (some centres unmarked) [Compound I-443] | < 10 | < 10
7 | O=C(NC1(C(=O)O)C2CC3CC(C2)CC1C3)c1cnc(N2CC3(CCCCC3)c3cc(C(=O)N4CCN(c5ncccn5)CC4)ccc32)nc1C(F)(F)F (centres unmarked) [Compound I-444] | < 10 | < 10
8 | COC1(C)CCC(Oc2ccc3c(-c4ncc(C(=O)NC5(C(=O)O)C6CC7CC(C6)CC5C7)c(C(F)(F)F)n4)cn(C4CCC(F)(F)CC4)c3c2)CC1 (centres unmarked) [Compound I-445] | < 10 | < 10
9 | O=C(NC1(C(=O)O)C2CC3CC(C2)CC1C3)c1cnc(-c2cn(-c3ccccn3)c3cc(OC4CCN(c5ncc(F)cn5)CC4)ccc23)nc1C(F)(F)F (centres unmarked) [Compound I-447] | < 10 | < 10
10 | O=C(NC1(C(=O)O)C2CC3CC(C2)CC1C3)c1cnc(-c2cn(C3CCC(F)(F)CC3)c3cc(OC4CCC(N5CC(F)(F)C5)C4)ccc23)nc1C(F)(F)F (centres unmarked) [Compound I-451] | < 10 | 10 to 100
11 | O=C(NC1(C(=O)O)C2CC3CC(C2)CC1C3)c1ccc(-c2cn(C3CCC(F)(F)CC3)c3cc(O[C@H]4CC[C@H](N5CC(F)(F)C5)CC4)ccc23)nc1C(F)(F)F (some centres unmarked) [Compound I-452] | < 10 | < 10
12 | CC(F)(F)c1nc(N2CC3(CCCCC3)c3cc(C(=O)N4CCN(c5ncccn5)CC4)ccc32)ncc1C(=O)NC1(C(=O)O)C2CC3CC(C2)CC1C3 (centres unmarked) [Compound I-453] | < 10 | < 10
13 | O=C(NC1(C(=O)O)C2CC3CC(C2)CC1C3)c1cnc(N2CC3(CCCCC3)c3cc(CN4CCN(c5ncccn5)CC4)ccc32)nc1C(F)(F)F (centres unmarked) [Compound I-463] | < 10 | 100 to 5000
14 | CC(F)(F)c1nc(N2CC3(CCCCC3)c3cc(CN4CCN(c5ncccn5)CC4)ccc32)ncc1C(=O)NC1(C(=O)O)C2CC3CC(C2)CC1C3 (centres unmarked) [Compound I-464] | < 10 | 100 to 5000
15 | CC(F)(F)c1nc(N2CC3(CCOCC3)c3cc(OC4CCN(CC(F)(F)F)CC4)ccc32)ncc1C(=O)NC1(C(=O)O)C2CC3CC(C2)CC1C3 (centres unmarked) [Compound I-465] | < 10 | < 10
16 | O=C(NC1(C(=O)O)C2CC3CC(C2)CC1C3)c1cnc(N2CC3(CCOCC3)c3cc(-n4ncc5c4CCN(CC(F)(F)F)C5)ccc32)nc1C(F)(F)F (centres unmarked) [Compound I-472] | < 10 | < 10
17 | O=C(NC1(C(=O)O)C2CC3CC(C2)CC1C3)c1cnc(N2CC3(CCCCC3)c3cc(OC4CC5(CCN(CC(F)(F)F)CC5)C4)ccc32)nc1C(F)(F)F (centres unmarked) [Compound I-473] | < 10 | 100 to 5000
18 | O=C(NC1(C(=O)O)C2CC3CC(C2)CC1C3)c1cnc(N2CC3(CCCC3)c3cc(OC4CCN(CC(F)(F)F)CC4)ccc32)nc1C(F)(F)F (centres unmarked) [Compound I-474] | < 10 | 10 to 100
19 | O=C(N[C@]1(C(=O)O)[C@@H]2CC3C[C@H]1C[C@@](F)(C3)C2)c1cnc(-c2cn(C3CCC(F)(F)CC3)c3cc(O[C@H]4CC[C@H](N5CC(F)(F)C5)CC4)ccc23)nc1C(F)(F)F [Compound I-479] | < 10 | < 10
20 | CC(F)(F)c1nc(-c2cn(C3CCC(F)(F)CC3)c3cc(O[C@H]4CC[C@H](N5CC(F)(F)C5)CC4)ccc23)ncc1C(=O)NC1(C(=O)O)C2CC3CC(C2)CC1C3 (some centres unmarked) [Compound I-481] | < 10 | < 10
21 | O=C(NC1(C(=O)O)C2CC3CC(C2)CC1C3)c1cnc(N2CC3(CCCCC3)c3cc(OC4CCN(CC(F)F)CC4)ccc32)nc1C(F)(F)F (centres unmarked) [Compound I-482] | < 10 | 10 to 100
22 | O=C(NCC(F)(F)F)c1ccc2c(c1)C1(CCOCC1)CN2c1ncc(C(=O)NC2(C(=O)O)C3CC4CC(C3)CC2C4)c(C(F)(F)F)n1 (centres unmarked) [Compound I-483] | < 10 | 100 to 5000

Source: patent publication US12528790B2, “Amide derivative having antiviral activity” (Shionogi & Co., Ltd., priority 2020, dated 2026)
